Measured values published in ChEMBL document CHEMBL1156311, “Discovery of sulfonamide-pyrazole gamma-secretase inhibitors” (Bioorg Med Chem Lett, 2010).

Assay: Inhibition of gamma-secretase
Details: not given

SMILES | IC50 [µM]
COc1ncc2c(n1)CC1CCCC2N1S(=O)(=O)c1ccc(Cl)cc1 (stereo not drawn) | 9
O=S(=O)(c1ccc(Cl)cc1)N1[C@@H]2CCC[C@H]1C[C@@H](O)C2 (stereo in doubt; 8b) | 0.6
O=S(=O)(c1ccc(Cl)cc1)N1C2CCCC1c1cnc(O)nc1C2 (stereo not drawn) | > 10
COc1cc(CN([C@@H]2CCCCNC2=O)S(=O)(=O)c2ccc(Cl)cc2)ccc1OCCc1scnc1C | 0.65
Cc1n[nH]c2c1C1CCCC(C2)N1S(=O)(=O)c1ccc(Cl)cc1 (stereo not drawn) | 0.065
Nc1ncc2c(n1)CC1CCCC2N1S(=O)(=O)c1ccc(Cl)cc1 (stereo not drawn) | 5.5
C[C@@H]1CCC[C@H](C)N1S(=O)(=O)c1ccc(Cl)cc1 | 1.7
O=S(=O)(c1ccc(Cl)cc1)N1C2CCCC1c1c(C(F)F)n[nH]c1C2 (stereo not drawn) | 0.085
CNC1CC2CCCC(C1)N2S(=O)(=O)c1ccc(Cl)cc1 (racemic) | > 10
O=S(=O)(c1ccc(Cl)cc1)N1C2CCCC1c1cn[nH]c1C2 (stereo not drawn) | 0.004
O=S(=O)(c1ccc(Cl)cc1)N1C2CCCC1C(F)(F)c1[nH]ncc12 (stereo not drawn) | 0.003
O=C1c2[nH]ncc2C2CCCC1N2S(=O)(=O)c1ccc(Cl)cc1 (stereo not drawn) | 0.008
O=S(=O)(c1ccc(Cl)cc1)N1C2CCCC1c1c(C(F)(F)F)n[nH]c1C2 (stereo not drawn) | 0.07
CSc1ncc2c(n1)CC1CCCC2N1S(=O)(=O)c1ccc(Cl)cc1 (stereo not drawn) | > 10
Cc1ccc(S(=O)(=O)C(=O)NC2CC3CCCC(C2)N3S(=O)(=O)c2ccc(Cl)cc2)cc1 (racemic) | 8
Nc1n[nH]c2c1C1CCCC(C2)N1S(=O)(=O)c1ccc(Cl)cc1 (stereo not drawn) | 0.105

SMILES | IC50 [µM]
Nc1nc2c(s1)C1CCCC(C2)N1S(=O)(=O)c1ccc(Cl)cc1 (stereo not drawn) | > 10
O=S(=O)(c1ccc(Cl)cc1)N1C2CCCC1CCC2 | 1.3
CSc1n[nH]c2c1C1CCCC(C2)N1S(=O)(=O)c1ccc(Cl)cc1 (stereo not drawn) | 0.39
CN1CCCC[C@@H](N(Cc2ccc(Br)cc2)S(=O)(=O)c2ccc(Cl)cc2)C1=O | 1.7
CN(C)c1n[nH]c2c1C1CCCC(C2)N1S(=O)(=O)c1ccc(Cl)cc1 (stereo not drawn) | > 10
O=S(=O)(c1ccc(Cl)cc1)N1[C@@H]2CCC[C@H]1C[C@@H](O)C2 (stereo in doubt; 8a) | 3
O=S(=O)(c1ccc(Cl)cc1)N1C2CCCC1c1cncnc1C2 (stereo not drawn) | 4.7
O=S(=O)(c1ccc(Cl)cc1)N1C2CCCC1CC(=NO)C2 (racemic) | 3.3
Cn1cc2c(n1)CC1CCCC2N1S(=O)(=O)c1ccc(Cl)cc1 (stereo not drawn) | > 10
N[C@H]1C[C@H]2CCC[C@@H](C1)N2S(=O)(=O)c1ccc(Cl)cc1 | > 10
CC(=O)NC1CC2CCCC(C1)N2S(=O)(=O)c1ccc(Cl)cc1 (racemic) | > 10
Cn1ncc2c1CC1CCCC2N1S(=O)(=O)c1ccc(Cl)cc1 (stereo not drawn) | > 10
O=S(=O)(c1ccc(Cl)cc1)N1C2CCCC1c1cnoc1C2 (stereo not drawn) | 3.5
CC(=O)Nc1n[nH]c2c1C1CCCC(C2)N1S(=O)(=O)c1ccc(Cl)cc1 (stereo not drawn) | 0.07
O=C1NCCCC[C@H]1N(Cc1ccc(Br)cc1)S(=O)(=O)c1ccc(Cl)cc1 | 0.025

Assay: Drug level in FVB mouse plasma at 100 mg/kg, po after 3 hrs
Type: ADME, organism-based
Design: dose 100 mg/kg, route oral
Details: not given

SMILES | concentration at 3 h [µM]
O=S(=O)(c1ccc(Cl)cc1)N1C2CCCC1c1cn[nH]c1C2 (single isomer, unassigned; (+)) | 0.194

Assay: Drug level in FVB mouse cerebral cortex at 100 mg/kg, po after 3 hrs
Type: ADME, organism-based
Design: dose 100 mg/kg, route oral
Details: read-out: Drug uptake

SMILES | concentration at 3 h [µM]
O=S(=O)(c1ccc(Cl)cc1)N1C2CCCC1c1cn[nH]c1C2 (single isomer, unassigned; (+)) | 0.086
